# Experimental data as given in patent publication US7553967B2, “1,2-Dihydroquinoline derivatives and method for using the same to treat HIV infections” (Wyeth, priority 2004, dated 2009).
# pIC50: −log10 of the molar value.
# Molecular target: T1, HIV Reverse transcriptase (RT) 66/p51 (Human immunodeficiency virus type 1 group M subtype B, UniProt P04585)
# T1 construct: HIV Reverse transcriptase (RT) 66/p51; purchased Worthington
# Assay: RNA dependent DNA polymerase (RDDP) activity of HIV RT, 33P-TTP incorporation on polyrA-oligodT12-18, filter plate
# Type: biochemical
smiles,measurement,value
Cc1cn([C@H]2C[C@H](N=[N+]=[N-])[C@@H](CO)O2)c(=O)[nH]c1=O [AZT],pIC50,> 6.70
